Reference: ChEMBL document CHEMBL4665688, “Discovery of AB680: A Potent and Selective Inhibitor of CD73” (J Med Chem, 2020)

Experiments:
Cytochrome P450 2C9 [1] = target: T1, Cytochrome P450 2C9 (Homo sapiens, UniProt P11712); assay: Time dependent inhibition of CYP2C9 in human liver microsomes using diclofenac as substrate in presence of NADPH by LC-MS/MS analysis; type: ADME
[2] = Cmax in human at 25 mg, iv administered as single infusion for 30 to 60 mins; type: ADME, organism-based; set-up: route intravenous, dose 25 mg, time 30-60; conditions: in vivo
[3] = target: T2, Nuclear receptor subfamily 1 group I member 2 (Homo sapiens, UniProt O75469); assay: Activation of PXR (unknown origin) by reporter gene assay; type: ADME
T2 sequence (O75469 whole entry): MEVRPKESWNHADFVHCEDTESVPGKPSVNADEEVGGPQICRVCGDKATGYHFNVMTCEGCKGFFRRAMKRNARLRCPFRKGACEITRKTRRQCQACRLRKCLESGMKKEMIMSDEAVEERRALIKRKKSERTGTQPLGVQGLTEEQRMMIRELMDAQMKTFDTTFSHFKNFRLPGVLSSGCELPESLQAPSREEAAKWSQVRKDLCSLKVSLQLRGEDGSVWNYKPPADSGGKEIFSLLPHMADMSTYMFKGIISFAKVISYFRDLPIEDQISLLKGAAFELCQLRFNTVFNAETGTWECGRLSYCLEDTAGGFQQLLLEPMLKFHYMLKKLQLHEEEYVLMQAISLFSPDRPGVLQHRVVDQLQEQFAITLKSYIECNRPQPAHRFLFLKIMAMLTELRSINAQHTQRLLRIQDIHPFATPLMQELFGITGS

Cytochrome P450 1A2 [4] = target: T3, Cytochrome P450 1A2 (Homo sapiens, UniProt P05177); assay: Inhibition of CYP1A2 in human liver microsomes using phenacetin as substrate incubated for 5 to 20 mins in presence of NADPH by LC-MS/MS analysis; type: ADME; conditions: time 5-20 min; read-out: INH
T3 sequence (P05177 whole entry): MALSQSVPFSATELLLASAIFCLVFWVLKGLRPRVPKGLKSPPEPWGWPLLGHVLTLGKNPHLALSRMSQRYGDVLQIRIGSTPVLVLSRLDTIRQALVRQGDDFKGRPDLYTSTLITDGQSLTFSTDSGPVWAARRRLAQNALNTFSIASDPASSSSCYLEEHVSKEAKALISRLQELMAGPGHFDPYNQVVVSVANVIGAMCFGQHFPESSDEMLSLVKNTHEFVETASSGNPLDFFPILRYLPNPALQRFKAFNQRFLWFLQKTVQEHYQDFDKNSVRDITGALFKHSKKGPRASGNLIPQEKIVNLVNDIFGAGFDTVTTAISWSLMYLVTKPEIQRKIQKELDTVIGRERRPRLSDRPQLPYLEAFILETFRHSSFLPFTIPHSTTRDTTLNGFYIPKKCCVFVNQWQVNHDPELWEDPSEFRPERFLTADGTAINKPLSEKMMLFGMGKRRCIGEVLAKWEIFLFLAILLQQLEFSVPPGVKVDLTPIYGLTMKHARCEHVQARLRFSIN

[5] = Genotoxicity in Salmonella typhimurium by Ames test; type: toxicity; conditions: salmonella enterica subsp. enterica serovar typhimurium
Cytochrome P450 3A4 [6] = target: T4, Cytochrome P450 3A4 (Homo sapiens, UniProt P08684); assay: Time dependent inhibition of CYP3A4 in human liver microsomes using midazolam as substrate in presence of NADPH by LC-MS/MS analysis; type: ADME
Cytochrome P450 1A2 [7] = target: T3, Cytochrome P450 1A2; assay: Induction of CYP1A2 (unknown origin) assessed as effect on CYP1A2 mRNA expression; type: ADME
Cytochrome P450 3A4 [8] = target: T4, Cytochrome P450 3A4; assay: Inhibition of CYP3A4 in human liver microsomes using midazolam as substrate incubated for 5 to 20 mins in presence of NADPH by LC-MS/MS analysis; type: ADME; conditions: time 5-20 min
[9] = Half life in human at 16 mg, iv administered as single infusion for 30 to 60 mins; type: ADME, organism-based; conditions: in vivo, time 30-60 min
[10] = Half life in human at 25 mg, iv administered as single infusion for 30 to 60 mins; type: ADME, organism-based; conditions: in vivo, time 30-60 min
[11] = target: Voltage-gated inwardly rectifying potassium channel KCNH2 (Homo sapiens, UniProt Q12809); assay: Inhibition of human ERG
[12] = Toxicity in human at 0.1 to 25 mg, iv administered as single dose; type: organism-based; conditions: in vivo, dose 0.1-25 mg
[13] = Cmax in human at 16 mg, iv administered as single infusion for 30 to 60 mins; type: ADME, organism-based; set-up: route intravenous, dose 16 mg, time 30-60; conditions: in vivo
Cytochrome P450 2B6 = target: T5, Cytochrome P450 2B6 (Homo sapiens, UniProt P20813); assay: Induction of CYP2B6 (unknown origin) assessed as effect on CYP2B6 mRNA expression; type: ADME
T5 sequence (P20813 whole entry): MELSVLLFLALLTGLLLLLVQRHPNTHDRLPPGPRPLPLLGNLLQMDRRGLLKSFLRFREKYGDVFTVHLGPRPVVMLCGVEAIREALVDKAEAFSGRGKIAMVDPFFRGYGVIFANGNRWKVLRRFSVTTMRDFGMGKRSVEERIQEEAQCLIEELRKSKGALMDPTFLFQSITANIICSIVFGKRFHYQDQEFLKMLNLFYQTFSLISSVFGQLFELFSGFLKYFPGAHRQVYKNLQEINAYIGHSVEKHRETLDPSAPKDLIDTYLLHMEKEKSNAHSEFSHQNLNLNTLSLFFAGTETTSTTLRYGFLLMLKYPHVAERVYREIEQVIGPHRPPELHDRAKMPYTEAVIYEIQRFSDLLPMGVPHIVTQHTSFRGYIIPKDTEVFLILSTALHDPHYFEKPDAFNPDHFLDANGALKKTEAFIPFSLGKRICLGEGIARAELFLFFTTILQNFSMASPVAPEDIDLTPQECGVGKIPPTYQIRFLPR

Cytochrome P450 2C9 [14] = target: T1, Cytochrome P450 2C9; assay: Inhibition of CYP2C9 in human liver microsomes using diclofenac as substrate incubated for 5 to 20 mins in presence of NADPH by LC-MS/MS analysis; type: ADME; conditions: time 5-20 min

T1 sequence (P11712 whole entry, the tested form may be a part): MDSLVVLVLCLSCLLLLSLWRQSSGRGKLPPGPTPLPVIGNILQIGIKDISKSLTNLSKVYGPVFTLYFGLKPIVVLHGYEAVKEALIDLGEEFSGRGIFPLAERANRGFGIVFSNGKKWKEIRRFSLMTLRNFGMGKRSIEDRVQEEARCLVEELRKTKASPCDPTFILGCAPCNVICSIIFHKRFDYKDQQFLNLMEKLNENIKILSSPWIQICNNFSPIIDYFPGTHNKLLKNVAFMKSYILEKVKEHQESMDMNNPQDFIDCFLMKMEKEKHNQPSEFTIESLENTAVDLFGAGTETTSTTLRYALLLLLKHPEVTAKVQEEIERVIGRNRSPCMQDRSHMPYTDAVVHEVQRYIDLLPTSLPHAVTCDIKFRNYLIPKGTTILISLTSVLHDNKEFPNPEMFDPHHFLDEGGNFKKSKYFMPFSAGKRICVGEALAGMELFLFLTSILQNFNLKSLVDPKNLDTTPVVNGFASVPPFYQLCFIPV
T4 sequence (P08684 whole entry): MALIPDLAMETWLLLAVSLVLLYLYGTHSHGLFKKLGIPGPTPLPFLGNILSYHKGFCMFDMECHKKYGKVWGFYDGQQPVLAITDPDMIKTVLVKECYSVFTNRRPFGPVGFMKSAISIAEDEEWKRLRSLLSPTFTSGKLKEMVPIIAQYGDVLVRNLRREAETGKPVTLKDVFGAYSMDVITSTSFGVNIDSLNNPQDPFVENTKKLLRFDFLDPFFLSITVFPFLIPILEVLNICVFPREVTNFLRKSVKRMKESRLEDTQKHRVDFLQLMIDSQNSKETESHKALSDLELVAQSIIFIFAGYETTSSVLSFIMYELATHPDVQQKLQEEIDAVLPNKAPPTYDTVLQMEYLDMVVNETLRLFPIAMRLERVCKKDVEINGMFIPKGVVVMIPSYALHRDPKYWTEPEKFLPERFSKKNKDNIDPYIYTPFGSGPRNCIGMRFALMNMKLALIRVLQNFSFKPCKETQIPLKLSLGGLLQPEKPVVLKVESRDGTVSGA
Voltage-gated inwardly rectifying potassium channel KCNH2, sequence (Q12809 whole entry): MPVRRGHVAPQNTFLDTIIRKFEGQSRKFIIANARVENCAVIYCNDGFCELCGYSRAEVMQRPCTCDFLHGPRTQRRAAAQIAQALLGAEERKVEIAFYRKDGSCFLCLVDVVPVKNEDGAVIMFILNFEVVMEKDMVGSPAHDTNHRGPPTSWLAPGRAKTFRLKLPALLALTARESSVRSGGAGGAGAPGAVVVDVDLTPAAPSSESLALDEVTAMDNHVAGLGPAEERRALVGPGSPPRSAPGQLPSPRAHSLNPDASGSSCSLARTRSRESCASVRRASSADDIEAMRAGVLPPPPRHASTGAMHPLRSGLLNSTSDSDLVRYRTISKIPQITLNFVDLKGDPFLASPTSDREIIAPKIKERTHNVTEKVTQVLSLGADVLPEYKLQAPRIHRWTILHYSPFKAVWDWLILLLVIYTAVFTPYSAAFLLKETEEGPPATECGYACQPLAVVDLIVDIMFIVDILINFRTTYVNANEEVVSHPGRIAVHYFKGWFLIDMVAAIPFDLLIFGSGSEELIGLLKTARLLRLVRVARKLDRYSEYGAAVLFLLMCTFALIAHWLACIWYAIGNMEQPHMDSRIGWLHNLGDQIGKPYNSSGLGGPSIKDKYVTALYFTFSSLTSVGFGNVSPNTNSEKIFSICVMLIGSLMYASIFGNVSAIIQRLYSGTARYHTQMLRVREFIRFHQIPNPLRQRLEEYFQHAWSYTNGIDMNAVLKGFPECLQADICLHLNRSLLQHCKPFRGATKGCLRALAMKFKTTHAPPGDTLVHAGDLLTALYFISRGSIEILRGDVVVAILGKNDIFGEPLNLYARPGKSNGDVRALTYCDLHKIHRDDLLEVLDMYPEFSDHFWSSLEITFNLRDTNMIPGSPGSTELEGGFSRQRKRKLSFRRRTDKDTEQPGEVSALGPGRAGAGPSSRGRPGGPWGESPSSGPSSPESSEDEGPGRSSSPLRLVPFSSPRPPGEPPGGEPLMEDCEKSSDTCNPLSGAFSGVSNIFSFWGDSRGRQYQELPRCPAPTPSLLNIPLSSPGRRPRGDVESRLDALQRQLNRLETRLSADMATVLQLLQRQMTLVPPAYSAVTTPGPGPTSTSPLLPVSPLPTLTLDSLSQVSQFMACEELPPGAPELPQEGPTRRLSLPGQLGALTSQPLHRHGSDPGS

- TDI (Cytochrome P450 2C9 [1]): Not Active
- Cmax [2]: 5.17 µg/mL
- Activity [3]: Not Active
- IC50 (Cytochrome P450 1A2 [4]): > 100 µM
- TDI (Cytochrome P450 3A4 [6]): Not Active
- Activity (Cytochrome P450 1A2 [7]): Not Active
- INH (Cytochrome P450 3A4 [8]): > 100 µM
- half-life [9]: 66.6 h
- half-life [10]: 74.2 h
- Cmax [13]: 3.91 µg/mL
- Activity (Cytochrome P450 2B6): Not Active
- INH (Cytochrome P450 2C9 [14]): > 100 µM
Structure (SMILES): C[C@H](Nc1cc(Cl)nc2c1cnn2[C@@H]1O[C@H](COP(=O)(O)CP(=O)(O)O)[C@@H](O)[C@H]1O)c1ccccc1F
- Activity [5]: Non-Toxic
- IC50 [11]: > 10 µM
- Activity [12]: Non-Toxic
